Common to all, as to assay: growth of human tumour cells (NCI), 48 h
The subject of assay [1] is UACC-62 melanoma.
Assay [2] deals with NCI-H522 lung.
For assay [3], the system named is BT-549 breast.
Assay [4] concerns HCT-116 colon.
Assay [5] has as its system MDA-N.
Assay [6] deals with SN12C renal.
Assay [7] concerns A549 NSCLC.
Assay [8] deals with HCT-15 colon.
Assay [9] deals with SK-OV-3 ovarian.
Assay [10] deals with CCRF-CEM leukemia.
The test system of assay [11] is HOP-92 NSCLC.
The subject of assay [12] is UO-31 renal.
The test system of assay [13] is SNB-19 CNS.
Assay [14] deals with NCI-H460 lung.

These results are taken from PubChem BioAssay (NCI).

Where “and” joins values, the source holds several entries; their conditions need not be identical. Equal entries are not always repeated.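 Values below derive from 48-hour exposures of cells grown in 96-well plates, with endpoints linearly interpolated between the two concentrations bracketing the appropriate inhibition level. GI50 marks 50% less growth. TGI: concentration producing complete growth inhibition.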 Bounds are passed on as bounds.

In the case of `OC1(c2ccc3ccccc3c2)c2c(c3ccccc3c3ccccc23)C2=NCCN21` (centres undefined), the TGI was above 55.1 µM in [1]; 24.8 µM in assay [2]; above 37.3 µM in assay [3]; 10.3 µM in assay [4]; 4.28 µM in assay [5]; above 63.6 µM in assay [6]. Moreover, the TGI in assay [7] was above 69.4 µM; in assay [8], above 39.4 µM; in assay [9] it was 42.8 µM; in assay [10], above 100 µM; in [11], 70.3 µM; in assay [12], above 48.8 µM. Also, the TGI was above 58.2 µM in [13] and above 40.5 µM in assay [14].
As for `O=C(O)CCc1nc2cc3ccccc3cc2[nH]c1=O`, the TGI in assay [1], in assay [2], in [3], in [4], in assay [5] and in assay [6] was above 100 µM in each case. The TGI in assay [7], in assay [8], in assay [9], in assay [10], in assay [11] and in assay [12] was above 100 µM each time. Also, the TGI in assay [13] and in assay [14] was above 100 µM in each case.
On to `Cn1nc(C(=O)N2CC(CCl)c3c2cc([N+](=O)[O-])c2ccccc32)cc1NC(=O)Nc1cc(C(=O)N2CC(CCl)c3c2cc([N+](=O)[O-])c2ccccc32)nn1C` (centres undefined), for which the TGI in [1], in assay [2], in [3], in [4], in [5] and in assay [6] was above 100 µM each time. Moreover, the TGI in assay [7], in assay [8], in assay [9], in assay [11], in assay [12] and in assay [13] was above 100 µM in each case. This compound also registered a TGI in assay [14] above 100 µM.
On to `CN1CCCC(C(=O)OCC(=O)C2(O)CCC3C4CCC5=CC(=O)CCC5(C)C4C(O)CC32C)C1` (centres undefined), for which the TGI in assay [1] was 37.7 µM; in assay [2], 45.3 µM; in assay [3], 33.6 µM; in assay [4], 23.5 µM; in [5], 26.8 µM; in [6], 24 µM. Moreover, the TGI in assay [7] was above 67.6 µM; in [8], 44.1 µM; in assay [9], 45.6 µM; in assay [10], 35.6 µM; in assay [11], above 100 µM; in [12], 25.4 µM. Further, the TGI was found to be 30.9 µM in [13] and 28.5 µM in [14].
For the compound `CCc1n[nH]c(=S)n1/N=C\c1ccc(-c2ccccc2[N+](=O)[O-])o1`, the TGI in [1] was above 100 µM; in assay [2], above 100 µM; in assay [3], above 100 µM; in assay [4], above 100 µM; in assay [5], 39.2 µM; in assay [6], above 100 µM. The TGI in [7], in assay [8], in assay [9], in assay [10], in assay [11] and in assay [12] was above 100 µM in each case. This compound returned a TGI in assay [13] above 100 µM.
Regarding `C/C(=N\NC(=S)Nc1ccc(Cl)cc1)c1nc2ncccc2[nH]1`, the TGI was 12.8 µM in assay [1]; 20.2 µM in assay [2]; 11.1 µM in assay [3]; 13 µM in assay [4]; 23.1 µM in [5]; 31.4 µM in assay [6]. Besides, the TGI was above 100 µM in assay [7]; 14.5 µM in [8]; 60.8 µM in [9]; 5.75 µM in assay [11]; 5.13 µM in [12]; above 100 µM in assay [13]. Moreover, the TGI in [14] is 4.14 µM.
Take `O=C1/C(=C/c2ccc(Cl)cc2)Sc2scc(-c3cccc([N+](=O)[O-])c3)[n+]21`: the TGI in assay [1] was 13.5 µM; in assay [2], 2.01 µM; in assay [3], 6.37 µM; in [5], 13.8 µM; in [6], 11.9 µM; in assay [7], above 68.5 µM. In addition, the TGI in assay [8] turned out to be 4.66 µM; in assay [9], 23.6 µM; in assay [10] it was 1.18 µM; in assay [11], 5.39 µM; in assay [12] it was 15.5 µM; in assay [13] it was 38.9 µM. Besides, in assay [14], the TGI worked out at 20.3 µM.
Turning to `C(=N/NC1=NCCN1)/c1c2ccccc2c(/C=N\NC2=NCCN2)c2ccccc12`, the TGI in [1] is 0.274 µM and 0.425 µM and 0.242 µM; in [2] it was 0.214 µM and 0.262 µM and 0.387 µM; in assay [3], 0.892 µM and 0.347 µM; in assay [4], 0.468 µM and 1.18 µM and 1.21 µM; in assay [5], 0.69 µM and 1.18 µM; in assay [6], 0.545 µM and 1.72 µM and 1.94 µM. The TGI in [7] was 0.258 µM and 1.37 µM and 1.12 µM; in [8] it was 214 µM; in [9] it was 0.526 µM and 1.82 µM and 3.48 µM; in assay [10] it was 1.92 µM and 1.13 µM and 1.33 µM; in [11], 0.547 µM and 0.967 µM and 0.34 µM; in assay [13], 0.458 µM and 0.922 µM and 2.15 µM. Moreover, in assay [14], the TGI was 0.335 µM and 0.33 µM and 0.159 µM. In addition, the GI50 in assay [3] was 0.244 µM and 0.096 µM.
With `Nc1cc(N)c(N=Nc2cccc3c(S(=O)(=O)O)cccc23)cc1N=Nc1cc([N+](=O)[O-])ccc1O`, the TGI in assay [1] was 59.2 µM; in assay [2], 61.4 µM; in assay [3] it was above 100 µM; in [4] it was above 100 µM; in assay [5], above 100 µM; in [6] it was above 100 µM. The TGI in [7] is 67.9 µM; in [8] it was 61 µM; in assay [9], above 100 µM; in assay [11], 98.7 µM; in [12], above 100 µM; in assay [13] it was above 100 µM. In assay [14], the TGI was 74.1 µM.
Regarding `C#CC(O)Cc1ccc(OC)c2occc12` (centres undefined), the TGI in assay [1], in [2], in assay [3], in assay [4], in [5] and in assay [6] was above 100 µM each time. Moreover, the TGI in assay [7], in [8], in [9], in assay [11], in assay [12] and in [13] was above 100 µM throughout. Further, in assay [14], the TGI was above 100 µM.
